Experimental data as given in the NIST ThermoML archive (doi:10.1016/j.tca.2014.02.019).

Assay: xn = mol fraction of the nth substance listed
Conditions: 101 kPa, Liquid; for viscosity: Falling or rolling sphere viscometry; for mass density: Vibrating tube method

CCOS(=O)(=O)[O-].CC[N+]1(C)CCCCC1 [1-ethyl-1-methylpiperidinium ethyl sulfate] + O
Conditions	mass density [kg/m3]	viscosity [mPa·s]
298.15 K, x1 = 0.106	1113.1	7.436
298.15 K, x1 = 0.1407	1128.31	11.14
298.15 K, x1 = 0.2161	1148.02	22.79
298.15 K, x1 = 0.2643	1155.38	31.79
298.15 K, x1 = 0.3605	1164.49	54.56
298.15 K, x1 = 0.4662	1170.4	96.57
298.15 K, x1 = 0.5583	1173.75	159.1
298.15 K, x1 = 0.6591	1176.55	276.5
298.15 K, x1 = 0.7296	1177.92	419.2
298.15 K, x1 = 0.8133	1179.24	690.5
298.15 K, x1 = 1	1181.33	1821
303.15 K, x1 = 0.106	1109.81	6.222
303.15 K, x1 = 0.1407	1124.96	9.197
303.15 K, x1 = 0.2161	1144.56	18.22
303.15 K, x1 = 0.2643	1152	25.04
303.15 K, x1 = 0.3605	1161.22	42.54
303.15 K, x1 = 0.4662	1167.23	74.01
303.15 K, x1 = 0.5583	1170.68	119.5
303.15 K, x1 = 0.6591	1173.32	202.2
303.15 K, x1 = 0.7296	1174.77	296.9
303.15 K, x1 = 0.8133	1176.06	473.2
303.15 K, x1 = 1	1178.23	1186
308.15 K, x1 = 0.106	1106.45	5.272
308.15 K, x1 = 0.1407	1121.5	7.687
308.15 K, x1 = 0.2161	1141.12	14.99
308.15 K, x1 = 0.2643	1148.59	20.4
308.15 K, x1 = 0.3605	1157.92	33.84
308.15 K, x1 = 0.4662	1164.02	57.65
308.15 K, x1 = 0.5583	1167.53	91.73
308.15 K, x1 = 0.6591	1170.15	150.9
308.15 K, x1 = 0.7296	1171.56	218.5
308.15 K, x1 = 0.8133	1172.89	333.5
308.15 K, x1 = 1	1175.1	795.7
313.15 K, x1 = 0.106	1103.05	4.518
313.15 K, x1 = 0.1407	1118.01	6.508
313.15 K, x1 = 0.2161	1137.63	12.34
313.15 K, x1 = 0.2643	1145.18	16.7
313.15 K, x1 = 0.3605	1154.61	27.55
313.15 K, x1 = 0.4662	1160.8	45.97
313.15 K, x1 = 0.5583	1164.37	71.4
313.15 K, x1 = 0.6591	1167.05	115.8
313.15 K, x1 = 0.7296	1168.39	163.1
313.15 K, x1 = 0.8133	1169.71	242.2
313.15 K, x1 = 1	1171.79	549.9
318.15 K, x1 = 0.106	1099.61	3.91
318.15 K, x1 = 0.1407	1114.5	5.576
318.15 K, x1 = 0.2161	1134.17	10.38
318.15 K, x1 = 0.2643	1141.75	14.03
318.15 K, x1 = 0.3605	1151.3	22.7
318.15 K, x1 = 0.4662	1157.58	37.27
318.15 K, x1 = 0.5583	1161.21	56.71
318.15 K, x1 = 0.6591	1163.94	89.86
318.15 K, x1 = 0.7296	1165.32	123.9
318.15 K, x1 = 0.8133	1166.53	171.1
318.15 K, x1 = 1	1168.85	391.8
323.15 K, x1 = 0.106	1096.14	3.415
323.15 K, x1 = 0.1407	1110.96	4.818
323.15 K, x1 = 0.2161	1130.66	8.774
323.15 K, x1 = 0.2643	1138.31	11.77
323.15 K, x1 = 0.3605	1147.97	18.73
323.15 K, x1 = 0.4662	1154.35	30.42
323.15 K, x1 = 0.5583	1158.04	45.67
323.15 K, x1 = 0.6591	1160.83	70.97
323.15 K, x1 = 0.7296	1162.25	92.8
323.15 K, x1 = 0.8133	1163.48	130.8
323.15 K, x1 = 1	1165.73	285.8
328.15 K, x1 = 0.106	1092.63	3.006
328.15 K, x1 = 0.1407	1107.4	4.206
328.15 K, x1 = 0.2161	1127.13	7.538
328.15 K, x1 = 0.2643	1134.87	10.13
328.15 K, x1 = 0.3605	1144.63	15.77
328.15 K, x1 = 0.4662	1151.12	25.37
328.15 K, x1 = 0.5583	1154.87	37.45
328.15 K, x1 = 0.6591	1157.71	56.75
328.15 K, x1 = 0.7296	1159.16	73.46
328.15 K, x1 = 0.8133	1160.43	101.6
328.15 K, x1 = 1	1162.62	212.6
333.15 K, x1 = 0.106	1089.08	2.667
333.15 K, x1 = 0.1407	1103.8	3.7
333.15 K, x1 = 0.2161	1123.62	6.103
333.15 K, x1 = 0.2643	1131.4	8.625
333.15 K, x1 = 0.3605	1141.31	13.48
333.15 K, x1 = 0.4662	1147.88	21.32
333.15 K, x1 = 0.5583	1151.7	–
333.15 K, x1 = 0.6591	1154.59	44.89
333.15 K, x1 = 0.7296	1156.08	58.82
333.15 K, x1 = 0.8133	1157.38	80.45
333.15 K, x1 = 1	1159.54	162.5
338.15 K, x1 = 0.106	1085.5	2.383
338.15 K, x1 = 0.1407	1100.19	3.278
338.15 K, x1 = 0.2161	1120.07	4.937
338.15 K, x1 = 0.2643	1127.93	7.493
338.15 K, x1 = 0.3605	1137.96	11.57
338.15 K, x1 = 0.4662	1144.64	18.19
338.15 K, x1 = 0.5583	1148.52	26.14
338.15 K, x1 = 0.6591	1151.47	37.58
338.15 K, x1 = 0.7296	1152.99	47.7
338.15 K, x1 = 0.8133	1154.33	64.86
338.15 K, x1 = 1	1156.56	126.1
343.15 K, x1 = 0.106	1081.88	2.143
343.15 K, x1 = 0.1407	1096.54	2.926
343.15 K, x1 = 0.2161	1116.49	4.099
343.15 K, x1 = 0.2643	1124.44	6.755
343.15 K, x1 = 0.3605	1134.62	10.06
343.15 K, x1 = 0.4662	1141.4	15.53
343.15 K, x1 = 0.5583	1145.35	22.23
343.15 K, x1 = 0.6591	1148.36	32.44
343.15 K, x1 = 0.7296	1149.91	40.29
343.15 K, x1 = 0.8133	1151.31	53
343.15 K, x1 = 1	1153.58	99.87

CCOS(=O)(=O)[O-].CC[N+]1(C)CCCC1 [1-ethyl-1-methylpyrrolidinium ethyl sulfate] + O
Conditions	mass density [kg/m3]	viscosity [mPa·s]
313.15 K, x1 = 0.0348	1046.88	1.414
313.15 K, x1 = 0.0933	1095.76	3.185
313.15 K, x1 = 0.1312	1114.51	5.031
313.15 K, x1 = 0.2458	1144.25	10.31
313.15 K, x1 = 0.3495	1155.83	15.65
313.15 K, x1 = 0.5281	1166.58	27.98
313.15 K, x1 = 0.693	1171.73	42.48
313.15 K, x1 = 0.7794	1172.62	51.33
313.15 K, x1 = 0.895	1174.19	64.67
313.15 K, x1 = 1	1176.31	78.32
318.15 K, x1 = 0.0348	1044.06	1.27
318.15 K, x1 = 0.0933	1092.47	2.8
318.15 K, x1 = 0.1312	1111.07	4.391
318.15 K, x1 = 0.2458	1140.77	8.889
318.15 K, x1 = 0.3495	1152.31	13.37
318.15 K, x1 = 0.5281	1163.34	23.71
318.15 K, x1 = 0.693	1168.5	35.67
318.15 K, x1 = 0.7794	1169.22	42.9
318.15 K, x1 = 0.895	1171.07	53.73
318.15 K, x1 = 1	1173.63	64.72
323.15 K, x1 = 0.0348	1041.44	1.149
323.15 K, x1 = 0.0933	1089.13	2.479
323.15 K, x1 = 0.1312	1107.59	3.87
323.15 K, x1 = 0.2458	1137.17	7.729
323.15 K, x1 = 0.3495	1149.28	11.6
323.15 K, x1 = 0.5281	1160.06	20.29
323.15 K, x1 = 0.693	1165.16	30.18
323.15 K, x1 = 0.7794	1165.65	36.07
323.15 K, x1 = 0.895	1167.97	44.78
323.15 K, x1 = 1	1170.95	53.51
328.15 K, x1 = 0.0348	1038.48	1.046
328.15 K, x1 = 0.0933	1085.76	2.211
328.15 K, x1 = 0.1312	1103.99	3.392
328.15 K, x1 = 0.2458	1133.19	6.803
328.15 K, x1 = 0.3495	1145.36	10.13
328.15 K, x1 = 0.5281	1156.72	17.54
328.15 K, x1 = 0.693	1161.95	25.84
328.15 K, x1 = 0.7794	1162.9	30.7
328.15 K, x1 = 0.895	1164.87	37.8
328.15 K, x1 = 1	1168.27	44.82
333.15 K, x1 = 0.0348	1035.45	0.992
333.15 K, x1 = 0.0933	1082.31	1.985
333.15 K, x1 = 0.1312	1100.26	2.943
333.15 K, x1 = 0.2458	1129.65	6.014
333.15 K, x1 = 0.3495	1142.23	8.896
333.15 K, x1 = 0.5281	1153.16	15.32
333.15 K, x1 = 0.693	1158.04	22.4
333.15 K, x1 = 0.7794	1160.04	26.46
333.15 K, x1 = 0.895	1162.1	32.29
333.15 K, x1 = 1	1165.59	37.95
338.15 K, x1 = 0.0348	1033.08	0.983
338.15 K, x1 = 0.0933	1079.2	1.8
338.15 K, x1 = 0.1312	1097.07	2.454
338.15 K, x1 = 0.2458	1125.34	5.34
338.15 K, x1 = 0.3495	1138.14	7.739
338.15 K, x1 = 0.5281	1150.02	13.29
338.15 K, x1 = 0.693	1155.15	19.06
338.15 K, x1 = 0.7794	1156.48	22.65
338.15 K, x1 = 0.895	1158.93	27.65
338.15 K, x1 = 1	1162.91	32.87
343.15 K, x1 = 0.0348	1030.38	0.976
343.15 K, x1 = 0.0933	1075.92	1.61
343.15 K, x1 = 0.1312	1093.61	1.923
343.15 K, x1 = 0.2458	1122.44	4.202
343.15 K, x1 = 0.3495	1135.34	6.568
343.15 K, x1 = 0.5281	1146.94	11.31
343.15 K, x1 = 0.693	1152.01	16.47
343.15 K, x1 = 0.7794	1153.23	19.55
343.15 K, x1 = 0.895	1155.85	24.69
343.15 K, x1 = 1	1160.23	29.23
